{"source": "paper PMC11619344", "about": "(Antimicrobial Agents and Chemotherapy, 2024)", "key": {"[1]": {"tested_on": "ST512/KPC-31 mutant IMI 1.1", "assay": "MIC, broth microdilution", "type": "cell-based", "conditions": "Klebsiella pneumoniae"}, "[2]": {"tested_on": "ST512/KPC-31 mutant IMI 3.2", "assay": "MIC, broth microdilution", "type": "cell-based", "conditions": "Klebsiella pneumoniae"}, "[3]": {"tested_on": "ST512/KPC-31 mutant IMI 3.1", "assay": "MIC, broth microdilution", "type": "cell-based", "conditions": "Klebsiella pneumoniae"}, "[4]": {"tested_on": "K. pneumoniae ST258/KPC-35", "assay": "In vitro resistance dynamics (stepwise, 7 days)", "type": "cell-based, Klebsiella pneumoniae", "conditions": "stepwise resistance development, MH broth, up to 64× MIC"}, "[5]": {"tested_on": "K. pneumoniae ST258/KPC-35 (KPC-2 L169P) parental clinical isolate", "assay": "MIC, broth microdilution", "type": "cell-based", "conditions": "Klebsiella pneumoniae"}, "[6]": {"tested_on": "ST258/KPC-35 mutant IMI 2.2", "assay": "MIC, broth microdilution", "type": "cell-based", "conditions": "Klebsiella pneumoniae"}, "[7]": {"tested_on": "ST258/KPC-35 mutant IMI 3.1", "assay": "MIC, broth microdilution", "type": "cell-based", "conditions": "Klebsiella pneumoniae"}, "[8]": {"tested_on": "ST512/KPC-31 mutant IMI 2.1", "assay": "MIC, broth microdilution", "type": "cell-based", "conditions": "Klebsiella pneumoniae"}, "[9]": {"tested_on": "ST512/KPC-31 mutant IMI 1.2", "assay": "MIC, broth microdilution", "type": "cell-based", "conditions": "Klebsiella pneumoniae"}, "[10]": {"tested_on": "ST512/KPC-31 mutant IMI 2.2", "assay": "MIC, broth microdilution", "type": "cell-based", "conditions": "Klebsiella pneumoniae"}, "[11]": {"tested_on": "K. pneumoniae ST512/KPC-31 (KPC-3 D179Y) parental clinical isolate", "assay": "MIC, broth microdilution", "type": "cell-based", "conditions": "Klebsiella pneumoniae"}, "[12]": {"tested_on": "ST258/KPC-35 mutant IMI 1.1", "assay": "MIC, broth microdilution", "type": "cell-based", "conditions": "Klebsiella pneumoniae"}, "[13]": {"tested_on": "ST258/KPC-35 mutant IMI 1.2", "assay": "MIC, broth microdilution", "type": "cell-based", "conditions": "Klebsiella pneumoniae"}, "[14]": {"tested_on": "ST258/KPC-35 mutant IMI 3.2", "assay": "MIC, broth microdilution", "type": "cell-based", "conditions": "Klebsiella pneumoniae"}, "E. coli HB4 KPC-2 L169A": {"tested_on": "E. coli HB4 KPC-2 L169A", "assay": "MIC of recombinant strains", "type": "cell-based", "conditions": "Escherichia coli, HB4KPC2L169A; E. coli HB4 expressing KPC-2 L169A in pUCP24", "experimental": "(§1) 14.0 (www.eucast.org/clinical_breakpoints).\n(§2) Recombinant strains were selected in 10 mg/L of gentamicin-LB agar plates. The β-lactam MICs were determined for the transformants according to the above-described methodology."}, "E. coli HB4": {"tested_on": "E. coli HB4", "assay": "MIC of recombinant strains", "type": "cell-based", "conditions": "Escherichia coli; E. coli HB4 (OmpC- and OmpF-deficient), no KPC", "experimental": "as §1, §2"}, "E. coli HB4 KPC-3": {"tested_on": "E. coli HB4 KPC-3", "assay": "MIC of recombinant strains", "type": "cell-based", "conditions": "Escherichia coli, HB4KPC3; E. coli HB4 expressing KPC-3 in pUCP24", "experimental": "as §1, §2"}, "[15]": {"tested_on": "E. coli HB4 KPC-35 (KPC-2 L169P)", "assay": "MIC of recombinant strains", "type": "cell-based", "conditions": "Escherichia coli; E. coli HB4 expressing KPC-35 (KPC-2 L169P) in pUCP24", "experimental": "as §1, §2"}, "E. coli HB4 KPC-2": {"tested_on": "E. coli HB4 KPC-2", "assay": "MIC of recombinant strains", "type": "cell-based", "conditions": "Escherichia coli, HB4KPC2; E. coli HB4 expressing KPC-2 in pUCP24", "experimental": "as §1, §2"}, "E. coli HB4 KPC-2 L169T": {"tested_on": "E. coli HB4 KPC-2 L169T", "assay": "MIC of recombinant strains", "type": "cell-based", "conditions": "Escherichia coli, HB4KPC2L169T; E. coli HB4 expressing KPC-2 L169T in pUCP24", "experimental": "as §1, §2"}, "E. coli HB4 KPC-3 D179N": {"tested_on": "E. coli HB4 KPC-3 D179N", "assay": "MIC of recombinant strains", "type": "cell-based", "conditions": "Escherichia coli, HB4KPC3D179N; E. coli HB4 expressing KPC-3 D179N in pUCP24", "experimental": "as §1, §2"}, "[16]": {"tested_on": "E. coli HB4 KPC-31 (KPC-3 D179Y)", "assay": "MIC of recombinant strains", "type": "cell-based", "conditions": "Escherichia coli; E. coli HB4 expressing KPC-31 (KPC-3 D179Y) in pUCP24", "experimental": "as §1, §2"}, "[17]": {"tested_on": "K. pneumoniae ST512/KPC-31", "assay": "In vitro resistance dynamics (stepwise, 7 days)", "type": "cell-based, Klebsiella pneumoniae", "conditions": "stepwise resistance development, MH broth, up to 64× MIC"}, "KPC-3": {"biological_target": "T1, KPC-3 (Klebsiella pneumoniae, UniProt Q9F663, H272Y)", "T1 construct": "made in house; host or cells: E. coli HB4 (porin-deficient), plasmid pUCP24", "assay": "Specific β-lactamase activity against imipenem, crude extract", "type": "biochemical", "conditions": "hydrolysis of imipenem by KPC-3 crude extract, 297 nm", "experimental": "(§3) Cultures were centrifuged at 3,500 × g, 15 min at 4°C, resuspended in 10 mL of phosphate-buffered saline (PBS; pH ~7.4) and sonicated with Ultraschall Prozessor UP 200S Hielscher (Teltow, Germany)."}, "KPC-3 D179N": {"biological_target": "T2, KPC-3 D179N (Klebsiella pneumoniae, UniProt Q9F663, D178N/H272Y)", "T2 construct": "made in house; host or cells: E. coli HB4 (porin-deficient), plasmid pUCP24", "assay": "Specific β-lactamase activity against imipenem, crude extract", "type": "biochemical", "conditions": "hydrolysis of imipenem by KPC-3 D179N crude extract, 297 nm", "experimental": "as §3"}, "KPC-2 L169T": {"biological_target": "T3, KPC-2 L169T (Klebsiella pneumoniae, UniProt Q9F663, L168T)", "T3 construct": "made in house; host or cells: E. coli HB4 (porin-deficient), plasmid pUCP24", "assay": "Specific β-lactamase activity against imipenem, crude extract", "type": "biochemical", "conditions": "hydrolysis of imipenem by KPC-2 L169T crude extract, 297 nm", "experimental": "as §3"}, "KPC-2 L169A": {"biological_target": "T4, KPC-2 L169A (Klebsiella pneumoniae, UniProt Q9F663, L168A)", "T4 construct": "made in house; host or cells: E. coli HB4 (porin-deficient), plasmid pUCP24", "assay": "Specific β-lactamase activity against imipenem, crude extract", "type": "biochemical", "conditions": "hydrolysis of imipenem by KPC-2 L169A crude extract, 297 nm", "experimental": "as §3"}, "KPC-2": {"biological_target": "T5, KPC-2 (Klebsiella pneumoniae, UniProt Q9F663)", "T5 construct": "made in house; host or cells: E. coli HB4 (porin-deficient), plasmid pUCP24", "assay": "Specific β-lactamase activity against imipenem, crude extract", "type": "biochemical", "conditions": "hydrolysis of imipenem by KPC-2 crude extract, 297 nm", "experimental": "as §3"}, "[18]": {"tested_on": "K. pneumoniae ST258/KPC-35 (KPC-2 L169P)", "assay": "Single-step mutant frequencies and mutant prevention concentrations", "type": "cell-based, Klebsiella pneumoniae", "conditions": "for Imipenem mutant frequency: MH agar, 48 h", "experimental": "(§4) The plates were incubated for 48 h at 37°C before the frequency of resistance emergence was calculated as the ratio of the number of colony forming units (CFUs) grown on the antibiotic-containing plate and the number of CFUs on antibiotic-free plates. Mutant prevention concentrations were defined as the lowest concentration of antibiotic combination for which there were zero colonies on all agar plates ([23]). All determinations were conducted in triplicate."}, "[19]": {"tested_on": "K. pneumoniae ST512/KPC-31 (KPC-3 D179Y)", "assay": "Single-step mutant frequencies and mutant prevention concentrations", "type": "cell-based, Klebsiella pneumoniae", "conditions": "for Imipenem mutant frequency: MH agar, 48 h", "experimental": "as §4"}, "[20]": {"tested_on": "ST258/KPC-35 mutant IMI 2.1", "assay": "MIC, broth microdilution", "type": "cell-based", "conditions": "Klebsiella pneumoniae"}, "[21]": {"conditions": "fold higher than the MIC of the parental strain"}, "[22]": {"conditions": "relebactam fixed at 4 mg/L in the combination"}}}
{"smiles": "C[C@@H](O)[C@H]1C(=O)N2C(C(=O)O)=C(SCCN=CN)C[C@H]12", "note": "[IMI, imipenem]", "values": [{"measurement": "MIC", "setting": "[1]", "result": "> 256", "unit": "µg/mL"}, {"measurement": "MIC", "setting": "[2]", "result": 32, "unit": "µg/mL"}, {"measurement": "MIC", "setting": "[3]", "result": 32, "unit": "µg/mL"}, {"measurement": "Day on which 64× MIC values were reached", "setting": "[4]", "result": 3, "unit": "days"}, {"measurement": "MIC", "setting": "[5]", "result": 0.5, "unit": "µg/mL"}, {"measurement": "MIC", "setting": "[6]", "result": "> 256", "unit": "µg/mL"}, {"measurement": "MIC", "setting": "[7]", "result": 128, "unit": "µg/mL"}, {"measurement": "MIC", "setting": "[8]", "result": "> 256", "unit": "µg/mL"}, {"measurement": "MIC", "setting": "[9]", "result": "> 256", "unit": "µg/mL"}, {"measurement": "MIC", "setting": "[10]", "result": "> 256", "unit": "µg/mL"}, {"measurement": "MIC", "setting": "[11]", "result": 0.125, "unit": "µg/mL"}, {"measurement": "MIC", "setting": "[12]", "result": 256, "unit": "µg/mL"}, {"measurement": "MIC", "setting": "[13]", "result": 256, "unit": "µg/mL"}, {"measurement": "MIC", "setting": "[14]", "result": 128, "unit": "µg/mL"}, {"measurement": "MIC", "setting": "E. coli HB4 KPC-2 L169A", "result": 8, "unit": "µg/mL"}, {"measurement": "MIC", "setting": "E. coli HB4", "result": 0.125, "unit": "µg/mL"}, {"measurement": "MIC", "setting": "E. coli HB4 KPC-3", "result": 16, "unit": "µg/mL"}, {"measurement": "MIC", "setting": "[15]", "result": 0.25, "unit": "µg/mL"}, {"measurement": "MIC", "setting": "E. coli HB4 KPC-2", "result": 32, "unit": "µg/mL"}, {"measurement": "MIC", "setting": "E. coli HB4 KPC-2 L169T", "result": 16, "unit": "µg/mL"}, {"measurement": "MIC", "setting": "E. coli HB4 KPC-3 D179N", "result": 0.25, "unit": "µg/mL"}, {"measurement": "MIC", "setting": "[16]", "result": 0.25, "unit": "µg/mL"}, {"measurement": "Day on which 64× MIC values were reached", "setting": "[17]", "result": 5, "unit": "days"}, {"measurement": "Specific activity", "setting": "KPC-3", "result": 2.5, "unit": "µmol/min/mg"}, {"measurement": "Specific activity", "setting": "KPC-3 D179N", "result": 0.02, "unit": "µmol/min/mg"}, {"measurement": "Specific activity", "setting": "KPC-2 L169T", "result": 0.13, "unit": "µmol/min/mg"}, {"measurement": "Specific activity", "setting": "KPC-2 L169A", "result": 0.1, "unit": "µmol/min/mg"}, {"measurement": "Specific activity", "setting": "KPC-2", "result": 0.55, "unit": "µmol/min/mg"}, {"measurement": "Mutant prevention concentration relative to baseline MIC", "setting": "[18]; [21]", "result": 16, "unit": "fold"}, {"measurement": "Imipenem mutant frequency", "setting": "[18]; imipenem concentration 2 mg/L", "result": "8.22×10^−9"}, {"measurement": "Imipenem mutant frequency", "setting": "[18]; imipenem concentration 4 mg/L", "result": "5.08×10^−10"}, {"measurement": "Imipenem mutant frequency", "setting": "[18]; imipenem concentration 8 mg/L", "result": "≤ 1.69×10^−11"}, {"measurement": "Mutant prevention concentration", "setting": "[18]; [22]", "result": 8, "unit": "mg/L"}, {"measurement": "Mutant prevention concentration relative to baseline MIC", "setting": "[19]; [21]", "result": 64, "unit": "fold"}, {"measurement": "Imipenem mutant frequency", "setting": "[19]; imipenem concentration 2 mg/L", "result": "1.29×10^−8"}, {"measurement": "Imipenem mutant frequency", "setting": "[19]; imipenem concentration 4 mg/L", "result": "6.10×10^−10"}, {"measurement": "Imipenem mutant frequency", "setting": "[19]; imipenem concentration 8 mg/L", "result": "≤ 2.44×10^−11"}, {"measurement": "Mutant prevention concentration", "setting": "[19]; [22]", "result": 8, "unit": "mg/L"}, {"measurement": "MIC", "setting": "[20]", "result": "> 256", "unit": "µg/mL"}]}
